The test concerns L1210 leukemia ip in BDF1 mice, survival T/C. In words: NCI In Vivo Anticancer Drug Screen. Data for tumor model L1210 Leukemia (intraperitoneal) in B6D2F1 (BDF1) mice. As to conditions: endpoint: mean survival time, higher = longer survival. The method in brief:
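Transplanted-tumor mice were given test agent; controls received vehicle only. Survival readings from the two groups were divided (treated over control).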

Setting [1] is: dose: 100.0 mg/kg/injection, schedule: Q01DX009 (ip), vehicle: saline with Tween-80.
[2] abbreviates: dose: 400.0 mg/kg/injection, schedule: Q01DX009 (ip), vehicle: saline with Tween-80.
Setting [3] is: dose: 100.0 mg/kg/injection, schedule: Q04DX003 (ip), vehicle: Klucel (hydroxypropylcellulose) (HPC).
Where [4] appears, read: dose: 200.0 mg/kg/injection, schedule: Q04DX003 (ip), vehicle: Klucel (hydroxypropylcellulose) (HPC).
Setting [5] is: dose: 400.0 mg/kg/injection, schedule: Q04DX003 (ip), vehicle: Klucel (hydroxypropylcellulose) (HPC).
[6] abbreviates: dose: 50.0 mg/kg/injection, schedule: Q01DX001 (ip), vehicle: carboxymethylcellulose (CMC).
Setting [7] is: dose: 200.0 mg/kg/injection, schedule: Q01DX001 (ip), vehicle: carboxymethylcellulose (CMC).
The mark [8] stands for this setting: dose: 400.0 mg/kg/injection, schedule: Q01DX001 (ip), vehicle: carboxymethylcellulose (CMC).
The mark [9] stands for this setting: dose: 100.0 mg/kg/injection, schedule: Q04DX002 (ip), vehicle: saline with Tween-80.
[10] abbreviates: dose: 200.0 mg/kg/injection, schedule: Q04DX002 (ip), vehicle: saline with Tween-80.
Setting [11] is: dose: 100.0 mg/kg/injection, schedule: Q01DX001 (ip), vehicle: carboxymethylcellulose (CMC).

Several values for one entry are separate records, joined by “and”; a condition that tells them apart may be missing. Identical values can stand only once. Inconclusive results and toxic doses are left out.

On to `COc1ccc(NC(=O)C(CC(C(C)=O)C(=O)Nc2ccc(OC)cc2)C(C)=O)cc1` (stereo unspecified), for which the T/C is, setting by setting: under setting [1], 87 % of control; under setting [2], 88 % of control.
On to `CC(C(=O)c1ccccc1)C(O)(C(F)(F)Cl)C(F)(F)Cl` (stereo unspecified), for which the T/C reads like this: under setting [3], 91 % of control; under setting [4], 91 % of control; under setting [5], 91 % of control.
Take `Cc1ccc2c([nH]1)c(C)cc1nc3ccccc3c12`: the T/C runs as follows: under setting [6], 103 % of control; (dose: 50.0 mg/kg/injection, schedule: Q01DX001 (ip), vehicle: saline) 95 % of control; (dose: 100.0 mg/kg/injection, schedule: Q01DX001 (ip), vehicle: saline) 101 % of control; under setting [7], 95 % of control; (dose: 200.0 mg/kg/injection, schedule: Q01DX001 (ip), vehicle: saline) 110 % of control; under setting [8], 104 % of control. Moreover, the T/C (dose: 400.0 mg/kg/injection, schedule: Q01DX001 (ip), vehicle: saline) was 101 % of control.
On to `O=C(NC/C(Cl)=C/Cl)Oc1cccc2ccccc12`, for which the T/C was 107 % of control (dose: 75.0 mg/kg/injection, schedule: Q01DX009 (ip), vehicle: Klucel (hydroxypropylcellulose) (HPC)); 104 % of control (dose: 150.0 mg/kg/injection, schedule: Q01DX009 (ip), vehicle: Klucel (hydroxypropylcellulose) (HPC)); 98 % of control (dose: 300.0 mg/kg/injection, schedule: Q01DX009 (ip), vehicle: Klucel (hydroxypropylcellulose) (HPC)).
In the case of `CCOP(=O)(OCC)OCCSCC`, the T/C by setting is: (dose: 75.0 mg/kg/injection, schedule: Q01DX001 (ip), vehicle: saline) 103 % of control; (dose: 150.0 mg/kg/injection, schedule: Q01DX001 (ip), vehicle: saline) 102 % of control.
With `CC1(C)CCC2(C)CCCCC2C1O` (stereo unspecified), the T/C reads like this: (dose: 50.0 mg/kg/injection, schedule: Q04DX002 (ip), vehicle: saline with Tween-80) 92 % of control; under setting [9], 96 % of control; under setting [10], 101 % of control.
`CC(=O)/C=C/c1ccc([N+](=O)[O-])o1`: the T/C is, setting by setting: (dose: 100.0 mg/kg/injection, schedule: Q01DX001 (ip), vehicle: Klucel (hydroxypropylcellulose) (HPC)) 116 % of control; (dose: 200.0 mg/kg/injection, schedule: Q01DX001 (ip), vehicle: Klucel (hydroxypropylcellulose) (HPC)) 121 % of control.
In the case of `COc1ccccc1NC(=O)Nc1ccc(SC)cc1`, the T/C is 98 % of control (dose: 100.0 mg/kg/injection, schedule: Q01DX009 (ip), vehicle: Klucel (hydroxypropylcellulose) (HPC)); 91 % of control under setting [3]; 103 % of control (dose: 200.0 mg/kg/injection, schedule: Q01DX009 (ip), vehicle: Klucel (hydroxypropylcellulose) (HPC)); 103 % of control under setting [4]; 97 % of control (dose: 400.0 mg/kg/injection, schedule: Q01DX009 (ip), vehicle: Klucel (hydroxypropylcellulose) (HPC)); 96 % of control under setting [5].
With `Fc1ccc(NC(=S)S)cc1`, the T/C by setting is: (dose: 6.25 mg/kg/injection, schedule: Q04DX003 (ip), vehicle: saline with Tween-80) 94 % of control; (dose: 12.5 mg/kg/injection, schedule: Q04DX003 (ip), vehicle: saline with Tween-80) 99 % of control; (dose: 25.0 mg/kg/injection, schedule: Q04DX003 (ip), vehicle: saline with Tween-80) 91 % of control.
Turning to `O=C1C(N2CCOCC2)=C(c2ccccc2)c2ccccc21`, the T/C (dose: 7.3 mg/kg/injection, schedule: Q01DX009 (ip), vehicle: other) is 94 % of control and 103 % of control; the T/C (dose: 11.0 mg/kg/injection, schedule: Q01DX009 (ip), vehicle: other) is 96 % of control and 100 % of control; the T/C (dose: 12.5 mg/kg/injection, schedule: Q01DX009 (ip), vehicle: other) is 350 % of control; the T/C (dose: 16.5 mg/kg/injection, schedule: Q01DX009 (ip), vehicle: other) is 96 % of control and 100 % of control; the T/C (dose: 37.5 mg/kg/injection, schedule: Q01DX009 (ip), vehicle: other) is 96 % of control and 101 % of control; the T/C (dose: 50.0 mg/kg/injection, schedule: Q01DX009 (ip), vehicle: other) is 98 % of control. In addition, the T/C is, setting by setting: (dose: 100.0 mg/kg/injection, schedule: Q01DX009 (ip), vehicle: other) 88 % of control; (dose: 200.0 mg/kg/injection, schedule: Q01DX009 (ip), vehicle: other) 93 % of control.
In the case of `Cc1cc(CSc2ssc(=S)c2-c2ccccc2)c(CSc2ssc(=S)c2-c2ccccc2)cc1C`, the T/C was 94 % of control under setting [1]; 112 % of control (dose: 100.0 mg/kg/injection, schedule: Q04DX003 (ip), vehicle: saline with Tween-80); 92 % of control (dose: 200.0 mg/kg/injection, schedule: Q01DX009 (ip), vehicle: saline with Tween-80); 106 % of control (dose: 200.0 mg/kg/injection, schedule: Q04DX003 (ip), vehicle: saline with Tween-80); 96 % of control under setting [2]; 95 % of control (dose: 400.0 mg/kg/injection, schedule: Q04DX003 (ip), vehicle: saline with Tween-80).
As for `CB1N(c2ccccc2)B(C)N(c2ccccc2)B(C)N1c1ccccc1`, the T/C under setting [3] is 103 % of control, the T/C under setting [4] was 93 % of control and the T/C under setting [5] was 97 % of control.
With `CC(=O)OC1CCSc2ccccc21` (stereo unspecified), the T/C runs as follows: under setting [6], 95 % of control; under setting [11], 93 % of control; under setting [7], 104 % of control; under setting [8], 90 % of control.
As for `N#Cc1ccc(NC(=O)N(CCCl)N=O)cc1`, the T/C (dose: 1.0 mg/kg/injection, schedule: Q01DX009 (ip), vehicle: saline) is 150 % of control; the T/C (dose: 1.56 mg/kg/injection, schedule: Q01DX009 (ip), vehicle: saline) was 161 % of control; the T/C (dose: 6.25 mg/kg/injection, schedule: Q01DX Z (ip), vehicle: carboxymethylcellulose (CMC)) was 160 % of control; the T/C (dose: 12.5 mg/kg/injection, schedule: Q01DX Z (ip), vehicle: carboxymethylcellulose (CMC)) is 118 % of control; the T/C (dose: 25.0 mg/kg/injection, schedule: Q01DX Z (ip), vehicle: carboxymethylcellulose (CMC)) was 104 % of control; the T/C (dose: 37.5 mg/kg/injection, schedule: Q01DX001 (ip), vehicle: carboxymethylcellulose (CMC)) was 152 % of control. Further, the T/C is, setting by setting: (dose: 75.0 mg/kg/injection, schedule: Q01DX001 (ip), vehicle: carboxymethylcellulose (CMC)) 153 % of control; (dose: 150.0 mg/kg/injection, schedule: Q01DX001 (ip), vehicle: carboxymethylcellulose (CMC)) 177 % of control.
With `CC1CCCC(C)N1C1=NCCO1` (stereo unspecified), the T/C runs as follows: (dose: 5.0 mg/kg/injection, schedule: Q01DX009 (ip), vehicle: saline with Tween-80) 95 % of control; (dose: 10.0 mg/kg/injection, schedule: Q01DX009 (ip), vehicle: saline with Tween-80) 97 % of control; (dose: 20.0 mg/kg/injection, schedule: Q01DX009 (ip), vehicle: saline with Tween-80) 95 % of control.
On to `CN(C)c1ccc(/C(=C(\c2ccccc2)c2ccc(N(C)C)cc2)c2ccccc2)cc1`, for which the T/C is 90 % of control under setting [3], 93 % of control under setting [4] and 89 % of control under setting [5].
With `C[C@]12CC[C@H](O)C[C@H]1CC[C@@H]1[C@@H]2CC[C@]2(C)[C@@H](C3=CC(=O)OC3)[C@@H](O)C[C@]12O`, the T/C runs as follows: under setting [6], 101 % of control; under setting [11], 107 % of control; under setting [7], 101 % of control; under setting [8], 102 % of control.
Take `O=C1OC(/C=C/c2ccccc2)=NC/1=C\c1ccccc1O`: the T/C reads like this: under setting [9], 92 % of control; under setting [10], 92 % of control; (dose: 400.0 mg/kg/injection, schedule: Q04DX002 (ip), vehicle: saline with Tween-80) 89 % of control.
For the compound `[Cl][Cu][Cl]`, the T/C is 100 % of control (dose: 3.13 mg/kg/injection, schedule: Q01DX009 (ip), vehicle: saline); 95 % of control (dose: 6.25 mg/kg/injection, schedule: Q01DX009 (ip), vehicle: saline); 102 % of control (dose: 6.25 mg/kg/injection, schedule: Q04DX003 (ip), vehicle: saline); 90 % of control (dose: 12.5 mg/kg/injection, schedule: Q01DX009 (ip), vehicle: saline); 107 % of control (dose: 12.5 mg/kg/injection, schedule: Q04DX003 (ip), vehicle: saline).
As to `N#CC1(Nc2ccc(-c3ccc(Cl)cc3)cc2)CCCC1`, the T/C is, setting by setting: under setting [6], 91 % of control; under setting [11], 91 % of control; under setting [7], 87 % of control.

Values taken from PubChem BioAssay AID248 (DTP/NCI, 2004).
